Results published in PMC5298005 (Clinical Pharmacology in Drug Development, 2016).
Like-named read-outs stand apart in the source and are kept apart here. Marks after values point to notes of the source that are not given here.

Tests used:
[1] = Phase 1 drug-interaction study, prednisone with isavuconazole: pharmacokinetics
[2] = Phase 1 drug-interaction study, sirolimus with isavuconazole: pharmacokinetics; assay type: in vivo, human (healthy subjects)
[3] = assay type: in vivo, human (healthy subjects)
[4] = Treatment-emergent adverse events, cyclosporine study; assay type: in vivo, human (healthy subjects); details: TEAE during isavuconazole‐only administration
[5] = Phase 1 drug-interaction study, tacrolimus with isavuconazole: pharmacokinetics; assay type: in vivo, human (healthy subjects)
CYP3A4 = details: human liver microsomes expressing CYP3A4 in vitro; ref data on file; cited from earlier work
[6] = cited from earlier work
[7] = both, human, plasma, oral, 200 mg
[8] = isavuconazole + sirolimus vs isavuconazole alone
[9] = isavuconazole + MMF vs isavuconazole alone
[10] = isavuconazole + tacrolimus vs isavuconazole alone
[11] = isavuconazole + cyclosporine vs isavuconazole alone
[12] = MPAG after MMF 1 g single oral dose
[13] = MMF + isavuconazole vs MMF alone
[14] = MPA after MMF 1 g single oral dose
[15] = both, human, in vivo, po, 20 mg
[16] = prednisolone after prednisone 20 mg single oral dose
[17] = prednisone + isavuconazole vs prednisone alone
[18] = both, human, whole blood, po, 2 mg
[19] = sirolimus 2 mg single oral dose
[20] = both, human, whole blood, po, 5 mg
[21] = tacrolimus 5 mg single oral dose
[22] = tacrolimus + isavuconazole vs tacrolimus alone

SMILES: C[C@@H](c1nc(-c2ccc(C#N)cc2)cs1)[C@](O)(Cn1cncn1)c1cc(F)ccc1F [Isavuconazole, isavuconazole]
- AUC ([1]; both, human, in vivo, 200 mg): 88200 ng·h/mL
- Cmax ([1]; both, human, in vivo, 200 mg): 5600 ng/mL
- Tmax ([1]; both, human, in vivo, 200 mg): 2 h
- AUC [2, 7]: 92000 ng·h/mL
- Tmax [2, 7]: 2 h
- mean AUCτ of isavuconazole higher in the presence of sirolimus ([2]; in vivo): 11%
- mean Cmax of isavuconazole higher in the presence of sirolimus ([2]; in vivo): 4%
- AUCτ, Geometric Least‐Squares Mean, % (90%CI) [2, 8]: 111 (109, 114) %
- Cmax, Geometric Least‐Squares Mean, % (90%CI) [2, 8]: 104 (100, 108) %
- AUCτ ([3]; MMF study, isavuconazole 200 mg QD alone, plasma, n = 22, arithmetic mean (SD)): 101.4 (37.6) μg·h/mL
- Cmax [3, 7]: 6500 ng/mL
- change of mean AUCτ of isavuconazole by coadministration with MMF ([3]; in vivo): unchanged
- mean Cmax of isavuconazole increased by coadministration with MMF ([3]; in vivo): 4%
- AUCτ, Geometric Least‐Squares Mean, % (90%CI) [3, 9]: 101 (98, 103) %
- Cmax, Geometric Least‐Squares Mean, % (90%CI) [3, 9]: 104 (100, 107) %
- blood creatinine ([4]; 1 subject, day 15, 0.9 mg/dL on day –1): 1.4 mg/dL
- blood creatinine ([4]; second subject, by day 14, baseline 1.3 mg/dL): 1.4 mg/dL
- AUC [5, 7]: 89800 ng·h/mL
- Cmax [5, 7]: 4900 ng/mL
- mean AUCτ of isavuconazole higher in the presence of tacrolimus ([5]; in vivo): 12%
- mean Cmax of isavuconazole higher in the presence of tacrolimus ([5]; in vivo): 26%
- AUCτ, Geometric Least‐Squares Mean, % (90%CI) [5, 10]: 112 (110, 115) %
- Cmax, Geometric Least‐Squares Mean, % (90%CI) [5, 10]: 126 (118, 134) %
- isavuconazole metabolized (CYP3A4): 66.2%
- AUC (both, human, in vivo, 200 mg): 108000 ng·h/mL
- Cmax (both, human, in vivo, 200 mg): 5700 ng/mL
- AUCτ, Geometric Least‐Squares Mean, % (90%CI) [11]: 103 (100, 106) %
- Cmax, Geometric Least‐Squares Mean, % (90%CI) [11]: 130 (121, 139) %

SMILES: CCC(C)n1ncn(-c2ccc(N3CCN(c4ccc(OCC5COC(Cn6cncn6)(c6ccc(Cl)cc6Cl)O5)cc4)CC3)cc2)c1=O (stereo not drawn) [Itraconazole, itraconazole]
- Fold increase in trough concentrations of cyclosporine ([6]; cyclosporine coadministered with itraconazole): ↑ 2.7 ^b ^,13 fold
- Fold increase in trough concentrations of tacrolimus ([6]; tacrolimus coadministered with itraconazole): ↑ 5.6 ^b ^,13 fold

SMILES: COc1c(C)c2c(c(O[C@@H]3O[C@H](C(=O)O)[C@@H](O)[C@H](O)[C@H]3O)c1C/C=C(\C)CCC(=O)O)C(=O)OC2 [MPAG, mycophenolic acid phenyl glucuronide]
- AUC0–∞ lower in the presence vs absence of isavuconazole [3, 12]: 24%
- AUClast lower in the presence vs absence of isavuconazole [3, 12]: 27%
- Cmax lower in the presence vs absence of isavuconazole [3, 12]: 32%

SMILES: COc1c(C)c2c(c(O)c1C/C=C(\C)CCC(=O)O)C(=O)OC2 [Mycophenolic Acid, mycophenolic acid]
- CL/F ([3]; MMF 1 g single oral dose alone, plasma, n = 24, arithmetic mean (SD)): 11.5 (3.4) L/h
- AUC0–∞, Geometric Least‐Squares Mean Ratio, % (90%CI) [3, 13]: 135 (127, 145) %
- AUClast, Geometric Least‐Squares Mean Ratio, % (90%CI) [3, 13]: 132 (124, 141) %
- Cmax, Geometric Least‐Squares Mean Ratio, % (90%CI) [3, 13]: 89 (76, 103) %
- Cmax lower in the presence vs absence of isavuconazole [3, 14]: 11%
- Mean AUC0–∞ higher in the presence vs absence of isavuconazole [3, 14]: 35%
- Mean AUClast higher in the presence vs absence of isavuconazole [3, 14]: 32%
- Tmax ([3]; both, human, plasma, po, 1 g): 0.5 h
- half-life ([3]; both, human, plasma, po, 1 g): 12.6 h

SMILES: CC[C@@H]([C@H](C)O)n1ncn(-c2ccc(N3CCN(c4ccc(OC[C@@H]5CO[C@@](Cn6cncn6)(c6ccc(F)cc6F)C5)cc4)CC3)cc2)c1=O [Posaconazole, posaconazole]
- Fold increase in area under the plasma concentration‐time curve of sirolimus ([6]; sirolimus coadministered with posaconazole): ↑ 7.9 ^a ^,14 fold
- Fold increase in area under the plasma concentration‐time curve of tacrolimus ([6]; tacrolimus coadministered with posaconazole): ↑ 3.6 ^a ^,14 fold

SMILES: C[C@]12C=CC(=O)C=C1CC[C@@H]1[C@@H]2[C@@H](O)C[C@@]2(C)[C@H]1CC[C@]2(O)C(=O)CO [Prednisolone, prednisolone]
- AUC(0-inf) [1, 15]: 1650 ng·h/mL
- AUC(0-t) [1, 15]: 1640 ng·h/mL
- Cmax [1, 15]: 295 ng/mL
- Tmax [1, 15]: 1.5 h
- half-life [1, 15]: 2.9 h
- Cmax lower in the presence vs absence of isavuconazole [1, 16]: 4%
- Mean AUC0–∞ higher in the presence vs absence of isavuconazole [1, 16]: 8%
- Mean AUClast higher in the presence vs absence of isavuconazole [1, 16]: 8%
- AUC0–∞, Geometric Least‐Squares Mean Ratio, % (90%CI) [1, 17]: 108 (102, 114) %
- AUClast, Geometric Least‐Squares Mean Ratio, % (90%CI) [1, 17]: 108 (102, 114) %
- Cmax, Geometric Least‐Squares Mean Ratio, % (90%CI) [1, 17]: 96 (90, 102) %

SMILES: CO[C@H]1C[C@@H]2CC[C@@H](C)[C@@](O)(O2)C(=O)C(=O)N2CCCC[C@H]2C(=O)O[C@H]([C@H](C)C[C@@H]2CC[C@@H](O)[C@H](OC)C2)CC(=O)[C@H](C)/C=C(\C)[C@@H](O)[C@@H](OC)C(=O)[C@H](C)C[C@H](C)/C=C/C=C/C=C/1C [Sirolimus, sirolimus]
- AUC(0-inf) [2, 18]: 196 ng·h/mL
- AUC(0-t) [2, 18]: 152 ng·h/mL
- Cmax [2, 18]: 5.1 ng/mL
- half-life [2, 18]: 74.8 h
- Mean AUC0–∞ higher in the presence vs absence of isavuconazole [2, 19]: 84%
- Mean AUClast higher in the presence vs absence of isavuconazole [2, 19]: 108%
- Mean Cmax higher in the presence vs absence of isavuconazole [2, 19]: 65%

SMILES: C=CC[C@@H]1/C=C(\C)C[C@H](C)C[C@H](OC)[C@H]2O[C@@](O)(C(=O)C(=O)N3CCCC[C@H]3C(=O)O[C@H](/C(C)=C/[C@@H]3CC[C@@H](O)[C@H](OC)C3)[C@H](C)[C@@H](O)CC1=O)[C@H](C)C[C@@H]2OC [Tacrolimus, tacrolimus]
- AUC(0-inf) [5, 20]: 313 ng·h/mL
- AUC(0-t) [5, 20]: 304 ng·h/mL
- Cmax [5, 20]: 26.7 ng/mL
- Mean AUC0–∞ higher in the presence vs absence of isavuconazole [5, 21]: 125%
- Mean AUClast higher in the presence vs absence of isavuconazole [5, 21]: 127%
- Mean Cmax higher in the presence vs absence of isavuconazole [5, 21]: 42%
- AUC0–∞, Geometric Least‐Squares Mean Ratio, % (90%CI) [5, 22]: 225 (191, 266) %
- AUClast, Geometric Least‐Squares Mean Ratio, % (90%CI) [5, 22]: 227 (192, 268) %
- Cmax, Geometric Least‐Squares Mean Ratio, % (90%CI) [5, 22]: 142 (122, 164) %

SMILES: C[C@@H](c1ncncc1F)[C@](O)(Cn1cncn1)c1ccc(F)cc1F [Voriconazole, voriconazole]
- Fold increase in area under the plasma concentration‐time curve of cyclosporine ([6]; cyclosporine coadministered with voriconazole): ↑ 1.7 ^a ^,7 fold
- Fold increase in area under the plasma concentration‐time curve of sirolimus ([6]; sirolimus coadministered with voriconazole): ↑ 11 ^a ^,7 fold
- Fold increase in area under the plasma concentration‐time curve of tacrolimus ([6]; tacrolimus coadministered with voriconazole): ↑ 3 ^a ^,7 fold
- effect of coadministration on MPA AUC ([6]; voriconazole coadministration, ref VFEND package insert): no significant effect
